From patent US20250340538A1, “IMIDAZOLONE DERIVATIVES AS INHIBITORS OF PROTEIN KINASES IN PARTICULAR DYRK1A, CLK1 AND/OR CLK4” (PERHA PHARMACEUTICALS, priority 2021, published 2025) come the findings set out here.

The target in one experiment is T1, CLK1 (Homo sapiens, UniProt P49759).
T1 construct: GST-fusion or His-tag (not specified per kinase); purchased ProQinase GmbH; host or cells: Sf9 insect cells or E. coli (not specified per kinase)
Put plainly: Radiometric protein kinase assay (33PanQinase Activity Assay), CLK1. Format: biochemical. The conditions noted are these: class by IC50 on CLK1, from dose-response curves; read-out: Potency Class CLK1. The method in brief:
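Human kinase (Sf9- or E. coli-expressed, tagged, purified) + substrate + [γ-33P]-ATP; cpd 10 μM→30 nM, 10 pts, 1% DMSO; 30 °C, 60 min; H3PO4 stop; scintillation count; IC50 from curve.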

Another experiment concerns the target T2, DYRK1A (Homo sapiens, UniProt Q13627).
T2 construct: GST-fusion or His-tag (not specified per kinase); purchased ProQinase GmbH; host or cells: Sf9 insect cells or E. coli (not specified per kinase)
Put plainly: Radiometric protein kinase assay (33PanQinase Activity Assay), DYRK1A. Format: biochemical. To be noted: for IC50: class by IC50 on DYRK1A, from dose-response curves, read-out: Potency Class DYRK1A; for Selectivity Class DYRK1A vs. CLK1: ratio of IC50 on CLK1 over IC50 on DYRK1A; for Selectivity Class DYRK1A vs. DYRK1B: ratio of IC50 on DYRK1B over IC50 on DYRK1A. In a few lines: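 Recombinant human kinase, expressed in Sf9 or E. coli, in a radiometric [γ-33P]-ATP assay at 30 °C for 60 min. Compounds tested at 10 concentrations from 10 μM to 30 nM, 1% DMSO final. 33Pi incorporation measured by scintillation counting; IC50 from dose-response curves.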

T1 sequence (P49759 whole entry, the tested form may be a part): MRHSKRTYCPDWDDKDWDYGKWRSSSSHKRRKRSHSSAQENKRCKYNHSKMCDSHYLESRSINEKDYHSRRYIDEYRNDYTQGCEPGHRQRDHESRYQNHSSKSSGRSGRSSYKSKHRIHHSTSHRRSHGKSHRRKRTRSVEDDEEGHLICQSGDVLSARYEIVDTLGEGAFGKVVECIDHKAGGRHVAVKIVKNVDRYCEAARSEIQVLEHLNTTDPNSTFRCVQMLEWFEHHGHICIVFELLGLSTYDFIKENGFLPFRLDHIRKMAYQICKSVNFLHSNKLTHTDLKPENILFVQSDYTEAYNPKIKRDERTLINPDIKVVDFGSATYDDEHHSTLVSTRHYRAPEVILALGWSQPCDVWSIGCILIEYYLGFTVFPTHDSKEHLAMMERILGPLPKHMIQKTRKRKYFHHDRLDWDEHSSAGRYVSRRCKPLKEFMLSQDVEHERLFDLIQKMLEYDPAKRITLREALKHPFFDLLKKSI

With `COC[C@@H](CC(C)C)NC1=N/C(=C\c2ccc3cnccc3c2)C(=O)N1` [Compound 60, (4Z)-4-(6-isoquinolylmethylene)-2-[[(1R)-1-(methoxymethyl)-3-methyl-butyl]amino]-1H-imidazol-5-one], at CLK1, the IC50 was > 0.05 µM. In addition, on DYRK1A, the IC50 is > 0.05 µM; the “Selectivity Class DYRK1A vs. CLK1” value was “II (ratio between 2 and 10 fold)”; the “Selectivity Class DYRK1A vs. DYRK1B” value was “III (ratio between 0.5 and 2 fold)”.
As for `O=C1NC(NCc2ccccc2)=N/C1=C\c1ccc2cnccc2c1` [Compound 62, (4Z)-2-(benzylamino)-4-(6-isoquinolylmethylene)-1H-imidazol-5-one], the IC50 on CLK1 is > 0.05 µM. In addition, at DYRK1A, the IC50 was > 0.05 µM; the “Selectivity Class DYRK1A vs. CLK1” value is listed as “V (ratio >0.1 fold (most CLK1- or DYRK1B-selective compounds))”; the “Selectivity Class DYRK1A vs. DYRK1B” value is “IV (ratio between 0.1 and 0.5 fold)”.
As to `COC[C@H](NC1=N/C(=C\c2ccc3cnccc3c2)C(=O)N1)c1ccccc1` [Compound 63, (4Z)-4-(6-isoquinolylmethylene)-2-[[(1R)-2-methoxy-1-phenyl-ethyl]amino]-1H-imidazol-5-one], at CLK1, the IC50 was > 0.05 µM. Also, at DYRK1A, the IC50 was > 0.05 µM; the “Selectivity Class DYRK1A vs. CLK1” value was “IV (ratio between 0.1 and 0.5 fold)”; the “Selectivity Class DYRK1A vs. DYRK1B” value is “III (ratio between 0.5 and 2 fold)”.
As for `Cc1cnc(CNC2=N/C(=C\c3ccc4cnccc4c3)C(=O)N2)cn1` [Compound 64, (4Z)-4-(6-Isoquinolylmethylene)-2-[(5-methylpyrazin-2-yl)methylamino]-1H-imidazol-5-one], on CLK1, the IC50 was > 0.05 µM. For the same compound, on DYRK1A, the IC50 is > 0.05 µM; the “Selectivity Class DYRK1A vs. CLK1” value was “III (ratio between 0.5 and 2 fold)”; the “Selectivity Class DYRK1A vs. DYRK1B” value was “IV (ratio between 0.1 and 0.5 fold)”.
Take `Cn1ccc(NC2=N/C(=C\c3ccc4cnccc4c3)C(=O)N2)n1` [Compound 65, (4Z)-4-(6-Isoquinolylmethylene)-2-[(1-methylpyrazol-3-yl)amino]-1H-imidazol-5-one]: the IC50 on CLK1 is > 0.05 µM. In addition, at DYRK1A, the IC50 was > 0.05 µM; the “Selectivity Class DYRK1A vs. CLK1” value was “IV (ratio between 0.1 and 0.5 fold)”; the “Selectivity Class DYRK1A vs. DYRK1B” value is “III (ratio between 0.5 and 2 fold)”.
As for `O=C1NC(N[C@@H]2CCOC2)=N/C1=C\c1ccc2cnccc2c1` [Compound 66, (4Z)-4-(6-Isoquinolylmethylene)-2-[[(3R)-tetrahydrofuran-3-yl]amino]-1H-imidazol-5-one], the IC50 at CLK1 is > 0.05 µM. In addition, at DYRK1A, the IC50 was > 0.05 µM; the “Selectivity Class DYRK1A vs. CLK1” value is “III (ratio between 0.5 and 2 fold)”; the “Selectivity Class DYRK1A vs. DYRK1B” value is “IV (ratio between 0.1 and 0.5 fold)”.
Regarding `O=C1NC(N[C@@H]2CCCOC2)=N/C1=C\c1ccc2cnccc2c1` [Compound 67, (4Z)-4-(6-isoquinolylmethylene)-2-[[(3R)-tetrahydropyran-3-yl]amino]-1H-imidazol-5-one], at CLK1, the IC50 was > 0.05 µM. For the same compound, on DYRK1A, the IC50 was > 0.05 µM; the “Selectivity Class DYRK1A vs. CLK1” value is “III (ratio between 0.5 and 2 fold)”; the “Selectivity Class DYRK1A vs. DYRK1B” value is “III (ratio between 0.5 and 2 fold)”.
Take `O=C1NC(NC23CC4CC(CC(C4)C2)C3)=N/C1=C\c1ccc2ncncc2c1` [Compound 68, (4Z)-2-(1-adamantylamino)-4-(quinazolin-6-ylmethylene)-1H-imidazol-5-one]: the IC50 on CLK1 is > 0.05 µM. Moreover, at DYRK1A, the IC50 is > 0.05 µM; the “Selectivity Class DYRK1A vs. CLK1” value is “III (ratio between 0.5 and 2 fold)”; the “Selectivity Class DYRK1A vs. DYRK1B” value is “II (ratio between 2 and 10 fold)”.
On to `COC[C@H](NC1=N/C(=C\c2ccc3nnccc3c2)C(=O)N1)c1ccccc1` [Compound 72, (4Z)-4-(cinnolin-6-ylmethylene)-2-[[(1R)-2-methoxy-1-phenyl-ethyl]amino]-1H-imidazol-5-one], for which, on CLK1, the IC50 was > 0.05 µM. Moreover, on DYRK1A, the IC50 was > 0.05 µM; the “Selectivity Class DYRK1A vs. CLK1” value is “III (ratio between 0.5 and 2 fold)”; the “Selectivity Class DYRK1A vs. DYRK1B” value is “III (ratio between 0.5 and 2 fold)”.
As for `COC[C@H](NC1=N/C(=C\c2ccc3cnncc3c2)C(=O)N1)c1ccccc1` [Compound 73, (4Z)-2-[[(1R)-2-methoxy-1-phenyl-ethyl]amino]-4-(phthalazin-6-ylmethylene)-1H-imidazol-5-one], the IC50 on CLK1 is > 0.05 µM. On DYRK1A, the IC50 was > 0.05 µM; the “Selectivity Class DYRK1A vs. CLK1” value was “III (ratio between 0.5 and 2 fold)”; the “Selectivity Class DYRK1A vs. DYRK1B” value was “III (ratio between 0.5 and 2 fold)”.
As to `O=C1NC(NC2CCCCC2)=N/C1=C\c1ccc2cnccc2c1` [Compound 75, (4Z)-2-(Cyclohexylamino)-4-(6-isoquinolylmethylene)-1H-imidazol-5-one], the IC50 on CLK1 was > 0.05 µM. Besides, on DYRK1A, the IC50 was > 0.05 µM; the “Selectivity Class DYRK1A vs. CLK1” value was “III (ratio between 0.5 and 2 fold)”; the “Selectivity Class DYRK1A vs. DYRK1B” value is “II (ratio between 2 and 10 fold)”.
`O=C1NC(NC2CCCCC2)=N/C1=C\c1ccc2ncncc2c1` [Compound 76, (4Z)-2-(cyclohexylamino)-4-(quinazolin-6-ylmethylene)-1H-imidazol-5-one]: the IC50 on CLK1 is > 0.05 µM. In addition, at DYRK1A, the IC50 was > 0.05 µM; the “Selectivity Class DYRK1A vs. CLK1” value is “III (ratio between 0.5 and 2 fold)”; the “Selectivity Class DYRK1A vs. DYRK1B” value is “II (ratio between 2 and 10 fold)”.
In the case of `O=C1NC(NC2CCCCCC2)=N/C1=C\c1ccc2ncncc2c1` [Compound 77, (4Z)-2-(cycloheptylamino)-4-(quinazolin-6-ylmethylene)-1H-imidazol-5-one], the IC50 on CLK1 was > 0.05 µM. Moreover, on DYRK1A, the IC50 is > 0.05 µM; the “Selectivity Class DYRK1A vs. CLK1” value is “II (ratio between 2 and 10 fold)”; the “Selectivity Class DYRK1A vs. DYRK1B” value is “II (ratio between 2 and 10 fold)”.
For `COC[C@@H](CC(C)C)NC1=N/C(=C\c2ccc3ncncc3c2)C(=O)N1` [Compound 78, (4Z)-2-[[(1R)-1-(methoxymethyl)-3-methyl-butyl]amino]-4-(quinazolin-6-ylmethylene)-1H-imidazol-5-one], the IC50 on CLK1 was > 0.05 µM. Also, on DYRK1A, the IC50 is > 0.05 µM; the “Selectivity Class DYRK1A vs. CLK1” value was “II (ratio between 2 and 10 fold)”; the “Selectivity Class DYRK1A vs. DYRK1B” value was “II (ratio between 2 and 10 fold)”.
Consider `CN1C(=O)/C(=C/c2ccc3nccnc3c2)N=C1NC1CCCCC1` [Compound 82, (5Z)-2-(Cyclohexylamino)-3-methyl-5-(quinoxalin-6-ylmethylene)imidazol-4-one], for which, at CLK1, the IC50 was > 0.05 µM. For the same compound, at DYRK1A, the IC50 is > 0.05 µM; the “Selectivity Class DYRK1A vs. CLK1” value was “III (ratio between 0.5 and 2 fold)”; the “Selectivity Class DYRK1A vs. DYRK1B” value was “III (ratio between 0.5 and 2 fold)”.
For the compound `CN1C(=O)/C(=C/c2ccc3nccnc3c2)N=C1NC1CCCCCC1` [Compound 83, (5Z)-2-(Cycloheptylamino)-3-methyl-5-(quinoxalin-6-ylmethylene)imidazol-4-one], the IC50 on CLK1 was > 0.05 µM. Besides, at DYRK1A, the IC50 was > 0.05 µM; the “Selectivity Class DYRK1A vs. CLK1” value is “III (ratio between 0.5 and 2 fold)”; the “Selectivity Class DYRK1A vs. DYRK1B” value was “III (ratio between 0.5 and 2 fold)”.
